The nature of data set [1]: refractive index (Na D-line) (dimensionless). Conditions: 293.15 K; 101.33 kPa; Liquid; Standard Abbe refractometry.
For data set [2] the following is noted: Liquid; for mass density: 293.15 K, 101.33 kPa, Vibrating tube method; for Normal boiling temperature: Ebulliometric method (Recirculating still).

Molecules are shown by their SMILES. Numbers after ± are expanded uncertainties.

A word on the refractive index: it is the speed of light in vacuum divided by its phase velocity in the sample. What is called mass density is mass per unit of volume. In the case of `CC(C)CO` [2-methyl-1-propanol], the refractive index in data set [1] is 1.3955 ± 0.0008. In data set [2], the mass density was 801.7 ± 1 kg/m3 and the Normal boiling temperature is 107.00 ± 0.5 °C.
Taken in the same sequence, the figures for `CCO` [ethanol] were 1.3616 ± 0.0008, 790 ± 1 kg/m3 and 78.40 ± 0.5 °C.
Taken in the same sequence, the figures for `CCCCCO` [pentan-1-ol] were 1.4087 ± 0.0008, 813.7 ± 1 kg/m3 and 137.80 ± 0.51 °C.
Taken in the same sequence, the figures for `O` [water] were 1.3328 ± 0.0008, 998.4 ± 1 kg/m3 and 100.1 ± 0.5 °C.

For the origin of these results see the NIST ThermoML archive (doi:10.1016/j.fluid.2013.03.029).
